# Assays:
# [1] = molecular target: T1, Mycoplasma arginini arginine deiminase (ADIPROT, ATCC 23243), recombinant, expressed in E. coli, SEQ ID NO: 1 (Mycoplasmopsis arginini, UniProt P23793); test: Kinetic characterization (Km, Vmax, affinity) of recombinant ADI with arginine, quantifying citrulline production; format: biochemical; conditions: about; range given for the enzymes of the three Mycoplasma species; various concentrations of arginine
# T1 construct: made in house; host or cells: E. coli
# T1 sequence (P23793 whole entry E126K): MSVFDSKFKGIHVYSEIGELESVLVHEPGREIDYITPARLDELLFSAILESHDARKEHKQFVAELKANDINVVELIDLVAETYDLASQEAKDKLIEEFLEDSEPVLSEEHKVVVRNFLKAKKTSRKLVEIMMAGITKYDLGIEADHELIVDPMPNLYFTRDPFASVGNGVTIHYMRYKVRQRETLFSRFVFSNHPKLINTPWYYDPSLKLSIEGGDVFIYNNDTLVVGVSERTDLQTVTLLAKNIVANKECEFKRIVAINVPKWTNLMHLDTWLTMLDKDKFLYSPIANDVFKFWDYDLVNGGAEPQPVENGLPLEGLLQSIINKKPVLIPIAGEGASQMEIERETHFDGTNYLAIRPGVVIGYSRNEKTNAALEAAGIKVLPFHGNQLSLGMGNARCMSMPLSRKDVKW
# Text: (§1) Cultures of Mycoplasma arginini (ATCC 23243), Mycoplasma hominus (ATCC 23114) and Mycoplasma arthritides (ATCC 23192) were obtained from the American Type Culture Collection, Rockville, Md.
# (§2) Arginine deiminase was cloned from Mycoplasma arginini, Mycoplasma hominus and Mycoplasma arthritides and expressed in E. coli as previously described by S. Misawa et al, J. Biotechnology, 36:145-155 (1994), the disclosure of which is hereby incorporated herein by reference in its entirety. The top amino acid sequence, identified as ADIPROT, is from Mycoplasma arginini; the middle amino acid sequence, identified as ARTADIPRO, is from Mycoplasma arthritides; and the bottom amino acid sequence, identified as HOMADIPRO, is from Mycoplasma hominus. Each of the amino acid sequences are more than 96% conserved. […] The pH optima was determined using a citrate buffer (pH 5-6.5), a phosphate buffer (pH 6.5-7.5) and a borate buffer (pH 7.5-8.5). The Km and Vmax were determined by incubating the enzyme with various concentrations of arginine and quantifying citrulline production. The Km for the various enzymes was about 0.02 to 0.06 μM and the Vmax was about 15-20 μmol/min/mg, the values of which are within standard error of each other.
# (§3) The proteins from each of the above three species of Mycoplasma have approximately 95% homology and are readily purified by column chromatography. […]
# [2] = molecular target: T2, Mycoplasma hominus arginine deiminase (HOMADIPRO, ATCC 23114), recombinant, expressed in E. coli, SEQ ID NO: 3 (Metamycoplasma hominis, UniProt P41141); test: as above; format: biochemical; conditions: about; range given for the enzymes of the three Mycoplasma species; various concentrations of arginine
# T2 construct: tag not given
# T2 sequence (P41141 whole entry): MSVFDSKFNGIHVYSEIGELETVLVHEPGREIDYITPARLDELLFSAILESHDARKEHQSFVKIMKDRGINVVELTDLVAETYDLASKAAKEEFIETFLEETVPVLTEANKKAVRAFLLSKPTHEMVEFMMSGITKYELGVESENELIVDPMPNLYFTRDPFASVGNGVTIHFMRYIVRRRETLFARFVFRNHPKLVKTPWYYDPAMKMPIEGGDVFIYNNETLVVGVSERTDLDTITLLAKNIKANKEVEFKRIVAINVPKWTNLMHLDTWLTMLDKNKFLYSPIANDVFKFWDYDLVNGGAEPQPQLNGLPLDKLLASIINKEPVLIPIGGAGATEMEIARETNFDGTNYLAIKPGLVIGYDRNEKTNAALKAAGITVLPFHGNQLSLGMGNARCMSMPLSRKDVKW
# Text: as §1, §2, §3
structure (smiles),measurement,setting,value
"N=C(N)NCCC[C@H](N)C(=O)O [arginine, L-arginine]",Vmax,[1],15 to 20 µmol/min/mg
same,Vmax,[2],15 to 20 µmol/min/mg

# — US7323167B2, “Method of treatment with modified arginine deiminase” (Polaris Group, priority 1997, dated 2008)
